Values of other authors as cited in patent US8404246B2, “Nutritional supplement to improve supplementary target protein fraction (TPF) delivery, intracellular absorption and utilization” (priority 2010, dated 2013).
Where two headings read alike, the source gives them in different places.

Assays:
[1] = exogenous form

Molecule: CC(=O)N[C@H]1C(O)O[C@H](CO)[C@@H](O)[C@@H]1O (stereo partly drawn) [N-acetyl D-glucosamine, N-Acetyl D-Glucosamine]
- solubility in water [1]: readily soluble

Molecule: Cl.N[C@H]1C(O)O[C@H](CO)[C@@H](O)[C@@H]1O (stereo partly drawn) [glucosamine HCl]
- ingested glycoprotein detectable in serum after dosing (in vivo): 6%

Molecule: glucosamine NaCl
- ingested glycoprotein detectable in serum after dosing (one recent study): 9%
